IC50 data for 49 molecules are collected here from patent US8633183B2 (priority 2010, dated 2014).

The structures appear in SMILES notation.

For this test, the target named is PI3Kalpha (Homo sapiens (Human), UniProt P42336). To be noted: read-out: IC50 PI3K.
Chain of PI3Kalpha (P42336 whole entry, looked up): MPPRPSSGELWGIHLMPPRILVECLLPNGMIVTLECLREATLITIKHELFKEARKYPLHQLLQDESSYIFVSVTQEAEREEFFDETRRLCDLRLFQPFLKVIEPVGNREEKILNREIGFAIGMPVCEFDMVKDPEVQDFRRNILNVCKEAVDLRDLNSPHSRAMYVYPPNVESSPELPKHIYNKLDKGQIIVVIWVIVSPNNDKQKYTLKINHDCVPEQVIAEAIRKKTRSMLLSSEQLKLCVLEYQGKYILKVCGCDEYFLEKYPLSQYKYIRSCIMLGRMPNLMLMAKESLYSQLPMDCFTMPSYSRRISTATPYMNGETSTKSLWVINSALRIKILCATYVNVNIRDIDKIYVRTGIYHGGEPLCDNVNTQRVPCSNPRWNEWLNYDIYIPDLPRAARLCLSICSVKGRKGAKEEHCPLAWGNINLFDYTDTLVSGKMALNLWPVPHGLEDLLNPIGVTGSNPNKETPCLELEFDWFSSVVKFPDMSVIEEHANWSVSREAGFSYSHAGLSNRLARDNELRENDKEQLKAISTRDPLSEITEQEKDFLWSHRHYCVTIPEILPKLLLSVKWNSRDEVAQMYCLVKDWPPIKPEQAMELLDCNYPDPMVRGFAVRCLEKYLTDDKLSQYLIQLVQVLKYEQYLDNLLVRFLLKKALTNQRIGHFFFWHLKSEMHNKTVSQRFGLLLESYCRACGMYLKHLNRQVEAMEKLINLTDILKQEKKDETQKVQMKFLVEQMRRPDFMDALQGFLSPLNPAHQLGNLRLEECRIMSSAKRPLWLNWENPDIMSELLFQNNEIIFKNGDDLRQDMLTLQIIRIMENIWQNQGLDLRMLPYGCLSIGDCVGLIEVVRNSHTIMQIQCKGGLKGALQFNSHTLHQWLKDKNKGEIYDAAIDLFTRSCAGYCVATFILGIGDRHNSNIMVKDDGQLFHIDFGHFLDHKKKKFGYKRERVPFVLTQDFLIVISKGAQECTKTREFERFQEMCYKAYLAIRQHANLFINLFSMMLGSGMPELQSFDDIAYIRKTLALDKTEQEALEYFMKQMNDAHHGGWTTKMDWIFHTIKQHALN
Broadly, the IC50 is the point on the concentration scale where inhibition reaches its midpoint. As for `CCc1ncnc(-c2ccc(C(=O)N3CC[C@@H](O)C3)c(Cl)c2)c1C#Cc1ccc(N)nc1` [Example E-28], the half-maximal inhibitory concentration (IC50) turned out to be 65.6 nM.

Turning to `CCc1ncnc(-c2ccc(C(=O)N3CCCC(O)C3)c(Cl)c2)c1C#Cc1ccc(N)nc1` (stereo not shown) [Example E-29], the IC50 was 65 nM.

Consider `CCc1ncnc(-c2ccc(C(=O)N3CCNCC3)c(Cl)c2)c1C#Cc1ccc(N)nc1` [Example E-34], for which the IC50 turned out to be 164 nM.

As for `CCc1ncnc(-c2ccc(C(=O)N(C)O)c(Cl)c2)c1C#Cc1ccc(N)nc1` [Example E-35], the IC50 came out at 67.4 nM.

In the case of `CCc1ncnc(-c2ccc(C(=O)N3CCCN(C)CC3)c(Cl)c2)c1C#Cc1ccc(N)nc1` [Example E-36], the IC50 turned out to be 405 nM.

For `CCc1ncnc(-c2ccc(C(=O)N3CCN(c4ccncc4)CC3)c(Cl)c2)c1C#Cc1ccc(N)nc1` [Example E-37], the IC50 was determined as 209 nM.

For the molecule `CCc1ncnc(-c2ccc(C(=O)N3CCC(O)CC3)c(Cl)c2)c1C#Cc1ccc(N)nc1` [Example E-38], the half-maximal inhibitory concentration (IC50) stood at 52.9 nM.

Regarding `CCc1ncnc(-c2ccc(C(=O)N3CCCOCC3)c(Cl)c2)c1C#Cc1ccc(N)nc1` [Example E-39], the IC50 came to 65.3 nM.

Take `CCc1ncnc(-c2ccc(C(=O)N3CCC4(CCN(C)C4)C3)c(Cl)c2)c1C#Cc1ccc(N)nc1` (stereo not shown) [Example E-40]: the IC50 turned out to be 514 nM.

On to `CCc1ncnc(-c2ccc(C(=O)NCC3(C)COC3)c(Cl)c2)c1C#Cc1ccc(N)nc1` [Example E-41], for which the IC50 was 66 nM.

With `CCCCN1CCN(C(=O)c2ccc(-c3ncnc(CC)c3C#Cc3ccc(N)nc3)cc2OC)CC1` [Example E-43], the IC50 came out at 502 nM.

Regarding `CCc1ncnc(-c2ccc(C(=O)N3CCC(C(C)(C)O)CC3)c(OC)c2)c1C#Cc1ccc(N)nc1` [Example E-44], the IC50 came to 232 nM.

On to `CCc1ncnc(-c2ccc(C(=O)N3CCC(N4CCN(C)CC4)CC3)c(OC)c2)c1C#Cc1ccc(N)nc1` [Example E-45], for which the concentration for half-maximal inhibition (IC50) turned out to be 96.9 nM.

On to `CCc1ncnc(-c2ccc(C(=O)N3CCCC(O)C3)c(OC)c2)c1C#Cc1ccc(N)nc1` (stereo not shown) [Example E-46], for which the IC50 is 104 nM.

In the case of `CCc1ncnc(-c2ccc(C(=O)N3CCOCC3)c(OC)c2)c1C#Cc1ccc(N)nc1` [Example E-48], the 50% inhibitory concentration (IC50) was determined as 100 nM.

Turning to `CCc1ncnc(-c2ccc(C(=O)N3CC(O)CO3)c(OC)c2)c1C#Cc1ccc(N)nc1` (stereo not shown) [Example E-49], the IC50 was 74.5 nM.

Take `CCc1ncnc(-c2ccc(C(=O)N3CCCO3)c(OC)c2)c1C#Cc1ccc(N)nc1` [Example E-50]: the IC50 was 157 nM.

For the molecule `CCc1ncnc(-c2ccc(C(=O)N3CCCC(N(C)C)C3)c(OC)c2)c1C#Cc1ccc(N)nc1` (stereo not shown) [Example E-51], the 50% inhibitory concentration (IC50) was 205 nM.

For the molecule `CCc1ncnc(-c2ccc(C(=O)N3CCC(N4CCC(C)CC4)C3)c(OC)c2)c1C#Cc1ccc(N)nc1` (stereo not shown) [Example E-52], the 50% inhibitory concentration (IC50) was 578 nM.

In the case of `CCc1ncnc(-c2ccc(C(=O)N3CCN(C4CCS(=O)(=O)C4)CC3)c(OC)c2)c1C#Cc1ccc(N)nc1` (stereo not shown) [Example E-54], the IC50 was 165 nM.

For `CCc1ncnc(-c2ccc(C(=O)N3CC[C@H](N(C)C)C3)c(OC)c2)c1C#Cc1ccc(N)nc1` [Example E-55], the concentration for half-maximal inhibition (IC50) worked out at 148 nM.

For the molecule `CCc1ncnc(-c2ccc(C(=O)N3CCN4CCCCC4C3)c(OC)c2)c1C#Cc1ccc(N)nc1` (stereo not shown) [Example E-57], the IC50 amounted to 280 nM.

For the molecule `CCc1ncnc(-c2ccc(C(=O)N3CCC(N4CCCCCC4)CC3)c(OC)c2)c1C#Cc1ccc(N)nc1` [Example E-58], the IC50 was 253 nM.

`CCc1ncnc(-c2ccc(C(=O)N3CCC(N(C)C)CC3)c(OC)c2)c1C#Cc1ccc(N)nc1` [Example E-59]: the 50% inhibitory concentration (IC50) was found to be 294 nM.

Take `CCc1ncnc(-c2ccc(C(=O)N(C)OC)c(OC)c2)c1C#Cc1ccc(N)nc1` [Example E-60]: the half-maximal inhibitory concentration (IC50) amounted to 69.4 nM.

As to `CCc1ncnc(-c2ccc(C(=O)N(C)C3CCS(=O)(=O)C3)c(OC)c2)c1C#Cc1ccc(N)nc1` (stereo not shown) [Example E-61], the 50% inhibitory concentration (IC50) was found to be 103 nM.

For `CCOC(=O)N1CCN(C(=O)c2ccc(-c3ncnc(CC)c3C#Cc3ccc(N)nc3)cc2OC)CC1` [Example E-62], the IC50 turned out to be 246 nM.

Take `CCc1ncnc(-c2ccc(C(=O)NCCN3CCOCC3)c(OC)c2)c1C#Cc1ccc(N)nc1` [Example E-64]: the IC50 was determined as 118 nM.

With `CCc1ncnc(-c2ccc(C(=O)N(C)CCN3CCCC3=O)c(OC)c2)c1C#Cc1ccc(N)nc1` [Example E-65], the half-inhibitory concentration (IC50) turned out to be 88 nM.

As to `CCc1ncnc(-c2ccc(C(=O)N3CCC4(CCN(C)C4)C3)c(OC)c2)c1C#Cc1ccc(N)nc1` (stereo not shown) [Example E-66], the IC50 stood at 662 nM.

On to `CCc1ncnc(-c2ccc(C(=O)N3CCN(CC4CCCCC4)CC3)c(OC)c2)c1C#Cc1ccc(N)nc1` [Example E-67], for which the concentration for half-maximal inhibition (IC50) turned out to be 3050 nM.

For the molecule `CCc1ncnc(-c2ccc(C(=O)N3CCN(C4CCCC4)CC3)c(OC)c2)c1C#Cc1ccc(N)nc1` [Example E-68], the 50% inhibitory concentration (IC50) is 412 nM.

As for `CCc1ncnc(-c2ccc(C(=O)N3CCN(Cc4ccccc4)CC3)c(OC)c2)c1C#Cc1ccc(N)nc1` [Example E-69], the IC50 came to 415 nM.

Regarding `CCc1ncnc(-c2ccc(C(=O)N3CCC(N4CCN(C)CC4)CC3)c(Cl)c2)c1C#Cc1ccc(N)nc1` [Example E-70], the IC50 was determined as 137 nM.

For the molecule `CCc1ncnc(-c2ccc(C(=O)N3CCC(N4CCOCC4)CC3)c(Cl)c2)c1C#Cc1ccc(N)nc1` [Example E-71], the half-inhibitory concentration (IC50) amounted to 99.9 nM.

Turning to `CCc1ncnc(-c2ccc(C(=O)N3CCOCC3)c(Cl)c2)c1C#Cc1ccc(N)nc1` [Example E-72], the 50% inhibitory concentration (IC50) was 66.5 nM.

On to `CCc1ncnc(-c2ccc(C(=O)N3CC(O)CO3)c(Cl)c2)c1C#Cc1ccc(N)nc1` (stereo not shown) [Example E-73], for which the 50% inhibitory concentration (IC50) is 88.3 nM.

In the case of `CCc1ncnc(-c2ccc(C(=O)N3CCCO3)c(Cl)c2)c1C#Cc1ccc(N)nc1` [Example E-74], the IC50 is 53.9 nM.

On to `CCc1ncnc(-c2ccc(C(=O)N3CCCC(N(C)C)C3)c(Cl)c2)c1C#Cc1ccc(N)nc1` (stereo not shown) [Example E-75], for which the IC50 amounted to 275 nM.

On to `CCc1ncnc(-c2ccc(C(=O)N3CCC(N4CCC(C)CC4)C3)c(Cl)c2)c1C#Cc1ccc(N)nc1` (stereo not shown) [Example E-76], for which the IC50 was 233 nM.

`CCc1ncnc(-c2ccc(C(=O)N(C)OC)c(Cl)c2)c1C#Cc1ccc(N)nc1` [Example E-79]: the IC50 was 50 nM.

`CCc1ncnc(-c2ccc(C(=O)N(C)C3CCS(=O)(=O)C3)c(Cl)c2)c1C#Cc1ccc(N)nc1` (stereo not shown) [Example E-80]: the IC50 came out at 48.2 nM.

`CCc1ncnc(-c2ccc(C(=O)N3CCN(S(=O)(=O)CC)CC3)c(Cl)c2)c1C#Cc1ccc(N)nc1` [Example E-81]: the IC50 was found to be 39.5 nM.

For the molecule `CCOC(=O)N1CCN(C(=O)c2ccc(-c3ncnc(CC)c3C#Cc3ccc(N)nc3)cc2Cl)CC1` [Example E-82], the IC50 stood at 81.7 nM.

`CCc1ncnc(-c2ccc(C(=O)NCCN3CCOCC3)c(Cl)c2)c1C#Cc1ccc(N)nc1` [Example E-84]: the half-inhibitory concentration (IC50) amounted to 113 nM.

`CCc1ncnc(-c2ccc(C(=O)N(C)CCN3CCCC3=O)c(Cl)c2)c1C#Cc1ccc(N)nc1` [Example E-85]: the IC50 was 56.4 nM.

Take `CCCCN1CCN(C(=O)c2ccc(-c3ncnc(CC)c3C#Cc3ccc(N)nc3)cc2C)CC1` [Example E-86]: the IC50 came to 147 nM.

For the molecule `CCc1ncnc(-c2ccc(C(=O)N3CCC(C(C)(C)O)CC3)c(C)c2)c1C#Cc1ccc(N)nc1` [Example E-87], the 50% inhibitory concentration (IC50) was 78.8 nM.

Take `CCc1ncnc(-c2ccc(C(=O)N3CCN(C4CCOCC4)CC3)c(C)c2)c1C#Cc1ccc(N)nc1` [Example E-88]: the IC50 was determined as 84.4 nM.
